Reference: patent US20220119446A1, “BIOMARKERS AND TREATMENT OF NEURONAL INJURY AND NEURODEGENERATION” (Board of Supervisons of Louisiana State University and …, priority 2018, published 2022)
“Also recorded” adds a separate entry of the source. * marks the point of attachment. Boc = CC(C)(C)OC(=O)*

B1: Wnt5a: Recombinant Human/Mouse Wnt-5a Protein, CHO-derived (Gln38-Lys380), R&D systems 645-WN (protein)
chain: QVVIEANSWWSLGMNNPVQMSEVYIIGAQPLCSQLAGLSQGQKKLCHLYQDHMQYIGEGAKTGIKECQYQFRHRRWNCSTVDNTSVFGRVMQIGSRETAFTYAVSAAGVVNAMSRACREGELSTCGCSRAARPKDLPRDWLWGGCGDNIDYGYRFAKEFVDARERERIHAKGSYESARILMNLHNNEAGRRTVYNLADVACKCHGVSGSCSLKTCWLQLADFRKVGDALKEKYDSAAAMRLNSRGKLVQVNSRFNSPTTQDLVYIDPSPDYCVRNESTGSLGTQGRLCNKTSEGMDGCELMCCGRGYDQFKTVQTERCHCKFHWCCYVKCKKCTEIVDQFVCK

Tests used:
ARPE-19 cells and hpRPE = experiment: Apoptosis by Hoechst staining in RPE cells under UOS; assay type: cell-based, human; conditions: for apoptosis by UOS in the presence of the Wnt ligand: RPE cells under UOS with recombinant Wnt5a; for cell death by UOS on addition of Wnt5a: ARPE-19 cells and hpRPE under UOS, Wnt5a 50 ng/ml
Description: ARPE-19 cells, can be plated and grown in DMEM/F-12 containing 10% FBS and 1× penicillin/streptomycin at 37° C., 5% CO2, 99% relative humidity for 24 h. […] 15-LOX-1 deficient cells can be maintained in the same medium as ARPE-19 with the addition of 500 μg/mL Geneticin (Life Technologies Corporation, Carlsbad, Calif.). Transfection can be performed in all cases using Lipofectamine 2000 (Life Technologies Corporation, Carlsbad, Calif.) following the manufacturer's recommendations. […] Experiments with transfection efficiency that yielded less than 80% can be discarded. For siRNA, we used 6 μl of Lipofectamine 2000 per 50 pmol of siRNA per mL of incubation medium, and, for plasmids, we used 6 μl of Lipofectamine 2000 per 2 μg of plasmid per mL of incubation medium. Cells can be incubated for 5 hours at 37° C., 5% CO2 and 99% relative humidity. […] When siRNA/plasmid co-transfection is required, siRNA and plasmid-carrying transfection mixes can be prepared separately and added one after the other in the same well. Oxidative stress treatments can be performed using 600 (ARPE-19) or 1600 (hRPE) μM H2O2, along with 10 ng/mL TNFα, for the required time indicated in each experiment. The treatment we used employed the low serum (0.5% serum) without hFGF. Treatment to induce uncompensated oxidative stress (UOS) can be performed after 8 hours of low-serum medium incubation unless specifically noted. Wnt5a, Wnt3a or NPD1 can be added immediately before induction of UOS. In the secretion experiments, Pitstop 2 can be added to the medium 2 hours before harvesting.
(§1) Immunostaining can be performed in 8-well slide chambers and the Hoechst staining in 24-well plates. […] Briefly, cells can be fixed using 4% paraformaldehyde in PBS 1× for 20 min at room temperature or overnight at 4° C. After three washes with PBS, cells can be permeabilized using 0.1% Triton™ X-100 for five minutes and blocked using 10% normal serum and 1% BSA for one hour. […] Hoechst staining can be performed using same protocol of fixation. In one embodiment, permeabilization is done using methanol for 20 min at room temperature. […] Dying cells can be identified by size (0 to 50 pixels), intensity threshold, and circularity. The ratio of hyperpyknotic cells over the total can be calculated for nine randomly chosen fields per sample obtained from three independent wells per experiment. Each experiment can be repeated at least three times to confirm the findings.
ARPE-19 cells, were plated and grown in DMEM/F-12 containing 10% FBS and 1× penicillin/streptomycin at 37° C., 5% CO2, 99% relative humidity for 24 h. […] 15-LOX-1 deficient cells were maintained in the same medium as ARPE-19 with the addition of 500 μg/mL Geneticin (Life Technologies Corporation). Transfection was performed in all cases using Lipofectamine 2000 (Life Technologies Corporation) following the manufacturer's recommendations. […] Experiments with transfection efficiency that yielded less than 80% were discarded. For siRNA, we used 6 μl of Lipofectamine 2000 per 50 pmol of siRNA per mL of incubation medium, and, for plasmids, we used 6 μl of Lipofectamine 2000 per 2 μg of plasmid per mL of incubation medium. Cells were incubated for 5 hours at 37° C., 5% CO2 and 99% relative humidity. […] When siRNA/plasmid co-transfection was required, siRNA and plasmid-carrying transfection mixes were prepared separately and added one after the other in the same well. […] The treatment we used employed the low serum (0.5% serum) without hFGF. Treatment to induce uncompensated oxidative stress (UOS) was performed after 8 hours of low-serum medium incubation unless specifically noted. Wnt5a, Wnt3a or NPD1 was added immediately before induction of UOS.

Wnt5a/FZD5 = experiment: Immunocytochemistry of Wnt5a/FZD5 colocalization and vesicles in hpRPE cells; assay type: cell-based, human; conditions: for size of FZD5/Wnt5a vesicles: Wnt5a added; for size of FZD5/Wnt5a vesicles / vesicle load (mean intensity per vesicle) / intensity and number of Wnt5a-positive vesicles / number of FZD5-positive vesicles: IMARIS; for vesicle load (mean intensity per vesicle): external Wnt5a added; for number of Wnt5a/FZD5 colocalized vesicles per field: UOS 1600 μM H2O2, 2 hours, +/− 50 ng/ml Wnt5a, no Pitstop2
Description: To ascertain localization and interaction between FZD5 and Wnt5a we incubated hpRPE undergoing UOS with Wnt5a+/−NPD1 or other lipid mediators.
as §1
In an embodiment involving early stages of apoptosis, the total number of cells per field is assessed and counted to ensure unbiased observations. […] Settings can be adjusted in the conditions that show higher intensity and can be used throughout the remaining samples. In an embodiment, Pearson's colocalization coefficient (PCC) is obtained using FV1200 analysis software for every field in each experiment, and the mean and SEM are depicted in FIGS. 7-11.
Immunostaining was performed in 8-well slide chambers and the Hoechst staining in 24 well plates. […] Briefly, cells were fixed using 4% paraformaldehyde in PBS 1× for 20 min at room temperature or overnight at 4° C. After three washes with PBS, cells were permeabilized using 0.1% Triton™ X-100 for five minutes and blocked using 10% normal serum and 1% BSA for one hour. […] Hoechst staining was performed using same protocol of fixation, but permeabilization was done using methanol for 20 min at room temperature. […] Dying cells were identified by size (0 to 50 pixels), intensity threshold and circularity. The ratio of hyperpyknotic cells over the total was calculated for nine randomly chosen fields per sample obtained from three independent wells per experiment. Each experiment was repeated at least three times to confirm the findings. In the experiments involving early stages of apoptosis, we assessed the total number of cells per field and counted them to ensure unbiased observations. […] Pearson's colocalization coefficient (PCC) was obtained using FV1200 analysis software for every field in each experiment, and the mean and SEM are depicted in Figures S1-S5. […] IMARIS software analysis was performed building a colocalization channel using the Costes thresholding, and the colocalized elements were analyzed using the spots function using the settings different spots sites, background subtraction and local contrast. The output obtained consisted on a collection of sizes (one per element in each picture) or the mean of the intensity in each spot.

Row | Molecule | UOS-dependent NFkB activation and apoptosis (FIG. 18B legend) (ARPE-19 cells and hpRPE) | apoptosis by UOS in the presence of the Wnt ligand (ARPE-19 cells and hpRPE; Hoechst staining) | size of FZD5/Wnt5a vesicles (Wnt5a/FZD5; hpRPE under UOS) | mode of Wnt5a and FZD5 signal intensity (Wnt5a/FZD5; hpRPE under UOS, absence of rWnt5a) | vesicle load (mean intensity per vesicle) (Wnt5a/FZD5; hpRPE under UOS) | intensity and number of Wnt5a-positive vesicles (Wnt5a/FZD5; hpRPE under UOS) | number of FZD5-positive vesicles (Wnt5a/FZD5; hpRPE under UOS) | number of Wnt5a/FZD5 colocalized vesicles per field (Wnt5a/FZD5; hpRPE) | quantity of large only-Wnt5a positive spots (Wnt5a/FZD5; hpRPE, absence of Wnt5a) | apoptosis in cells only exposed to UOS (ARPE-19 cells and hpRPE; no Wnt5a added, Hoechst staining) | cell death by UOS on addition of Wnt5a (ARPE-19 cells and hpRPE) | cell death by UOS on addition of Wnt5a (ARPE-19 cells and hpRPE; listed as Recombinant Wnt5a) | effect of Wnt5a alone on RPE cells (apoptosis) (ARPE-19 cells and hpRPE; resting cells, no UOS)
1 | CC/C=C\C[C@H](O)\C=C/C=C/C=C/[C@H](O)C/C=C\C/C=C\CCC(=O)O [NPD1, 10R,17S-dihydroxy-docosa-4Z,7Z,11E,13E,15Z,19Z-hexaenoic acid] | counteracted these effects | blocked apoptosis; also recorded: hindered apoptosis | Neither NPD1 nor Box5 affected the magnitude of the Wnt5a effect | restore both modes to control levels | higher Wnt5a/FZD5 and FZD5/Clathrin vesicle intensity when Wnt5a was added | difference in mean intensity distribution | decrease the number of FZD5-positive vesicles | brought down the number of vesicles per field; also recorded: had the same effect; also recorded: decreased the amount of vesicles per field | increased | – | – | – | –
2 | t-Boc-NH-Met-Asp-Gly-Cys-Glu-Leu-CO2H (Boc-MDGCEL-OH) [Box5] | – | blocked apoptosis; also recorded: hindered apoptosis | Neither NPD1 nor Box5 affected the magnitude of the Wnt5a effect | – | did not affected vesicle loads that showed FZD5/clathrin or Wnt5a/clathrin signal | did not modify the increase in intensity and number induced by UOS | decrease the number of FZD5-positive vesicles | decreased Wnt5a induction | – | decreased apoptosis; also recorded: prevented cell death | – | – | –
3 | B1 | – | – | – | – | – | – | – | increased the number of vesicles that co-localize with FZD5 | – | – | enhanced cell death triggered by H2O2; also recorded: enhances the percentage of cell death induced by UOS | potentiated cell death by UOS | no effect
